# Results taken from patent publication US20160194683A1, “Gas Biosensors” (priority 2013, published 2016).
# Where two headings read alike, the source gives them in different places.
# Key:
# [1] = biological target: XylR of Pseudomonas putida (Pseudomonas putida, UniProt P06519)
# [2] = tested on: DmpR of P. putida; conditions: host P. putida; Po-luxAB; cited from earlier work
# [3] = biological target: T1, TodST of P. putida (Pseudomonas putida, UniProt A5W4E3); conditions: host P. putida str. F1; todXp-luxCDABE; cited from earlier work
# T1 construct: host or cells: P. putida str; F1
# [4] = biological target: T2, NahR of P. putida (Pseudomonas putida, UniProt P10183); conditions: host P. putida; nahGp-luxAB; cited from earlier work
# T2 construct: host or cells: P. putida
# T2 sequence (P10183 1-300): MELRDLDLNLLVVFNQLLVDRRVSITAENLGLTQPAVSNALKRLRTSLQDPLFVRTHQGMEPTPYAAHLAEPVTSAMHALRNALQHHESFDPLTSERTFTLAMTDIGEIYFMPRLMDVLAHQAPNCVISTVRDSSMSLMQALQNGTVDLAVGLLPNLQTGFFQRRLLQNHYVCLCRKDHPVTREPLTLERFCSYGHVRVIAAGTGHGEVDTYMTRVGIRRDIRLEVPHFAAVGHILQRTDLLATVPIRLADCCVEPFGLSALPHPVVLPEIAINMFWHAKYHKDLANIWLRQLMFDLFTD
# [5] = tested on: FruR of Erwinia herbicola; conditions: cited from earlier work
# [6] = tested on: SOS response proteins of B. subtilis; conditions: host B. subtilis; yorBp-lucFF; cited from earlier work
# [7] = tested on: E. coli MG1655; experiment: Growth of E. coli MG1655 MHT integration strains in LB plus 200 mM KBr; format: cell-based; conditions: headspace gas collected at 5 hrs
# From the text: Three strains carrying an integrated Batis maritima MHT gene (BmMHT) were created by coupling the BmMHT gene to a constitutive promoter (P14) and three ribosomal binding sites (RBS) with different strengths (BCD2, BCD8, BCD14) in the integration vector pOSIP. Each was integrated into the phage 186 attachment site within the genome of E. coli MG1655 using the site specific recombinase from phage 186. Strains having the desired chromosomal insertions were verified by PCR.
# Cells with a genomic copy of the MHT construct under control of the three different RBS were then tested for MHT activity by growing the cells in LB plus 200 mM KBr. Headspace gas was collected at 5 hrs, and CH3Br measured by GC-MS.
# The CH3Br gas was readily detectable in the headspace, whereas the uninduced vector control cells produced no gas at all.
# [8] = tested on: PhnR of Burkholderia sartisoli; conditions: host B. sartisoli; phnSp-luxAB; cited from earlier work
# [9] = tested on: RecA-LexA of E. coli; conditions: host E. coli; reAp-luxCDABE; cited from earlier work
# [10] = tested on: RecA-LexA of E. coli; conditions: host E. coli; sfiA-lacZ; cited from earlier work
# [11] = tested on: TbuT of Ralstonia pickettii; conditions: host E. coli; tbuAlp-luxAB; cited from earlier work
# [12] = tested on: Crp-cAMP transcriptional dual regulator of E. coli; conditions: host E. coli; grpEP-luxCDABE; increase in intracellular misfolded proteins; cited from earlier work
# [13] = tested on: SpoIIID and σ^E of B. subtilis; conditions: host B. subtilis; yheI-lucFF; cited from earlier work
# [14] = tested on: ArsR of E. coli; conditions: host E. coli; arsRp-luxAB; cited from earlier work
# [15] = biological target: AraC of E. coli (Escherichia coli, UniProt P0A9E0); conditions: cited from earlier work
# [16] = tested on: MphR of E. coli; conditions: host E. coli; mphAp-lacZ; cited from earlier work
# [17] = tested on: DnaK and σ32 of E. coli; conditions: host E. coli; dnaKp-luxCDABE; increase in intracellular misfolded proteins; cited from earlier work
# [18] = host Escherichia coli; Pu-lucFF; cited from earlier work
# T1 sequence (A5W4E3 whole entry): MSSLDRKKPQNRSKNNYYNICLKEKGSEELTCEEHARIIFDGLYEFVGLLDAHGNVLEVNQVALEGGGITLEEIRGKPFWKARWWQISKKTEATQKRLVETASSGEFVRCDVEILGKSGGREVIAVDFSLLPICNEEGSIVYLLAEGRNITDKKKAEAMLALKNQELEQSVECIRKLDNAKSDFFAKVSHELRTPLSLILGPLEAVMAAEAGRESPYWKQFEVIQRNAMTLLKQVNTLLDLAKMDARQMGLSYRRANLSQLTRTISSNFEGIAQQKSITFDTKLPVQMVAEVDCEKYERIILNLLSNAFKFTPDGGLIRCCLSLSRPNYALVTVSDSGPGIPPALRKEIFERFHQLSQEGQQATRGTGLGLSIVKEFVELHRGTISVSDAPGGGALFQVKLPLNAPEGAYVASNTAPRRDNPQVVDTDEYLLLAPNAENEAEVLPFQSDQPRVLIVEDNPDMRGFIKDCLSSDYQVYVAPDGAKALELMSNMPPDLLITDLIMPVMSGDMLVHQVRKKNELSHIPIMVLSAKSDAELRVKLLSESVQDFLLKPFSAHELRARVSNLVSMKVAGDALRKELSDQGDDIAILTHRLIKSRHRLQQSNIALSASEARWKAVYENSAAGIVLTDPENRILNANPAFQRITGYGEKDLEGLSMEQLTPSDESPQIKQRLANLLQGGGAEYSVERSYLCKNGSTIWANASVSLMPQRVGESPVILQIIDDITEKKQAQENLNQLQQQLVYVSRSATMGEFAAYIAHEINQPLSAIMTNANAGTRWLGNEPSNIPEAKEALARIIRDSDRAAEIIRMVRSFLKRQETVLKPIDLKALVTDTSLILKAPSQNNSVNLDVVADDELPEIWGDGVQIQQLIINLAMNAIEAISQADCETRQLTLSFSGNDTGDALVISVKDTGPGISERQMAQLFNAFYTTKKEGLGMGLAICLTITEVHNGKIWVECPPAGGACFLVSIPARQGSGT
# XylR of Pseudomonas putida, sequence (P06519 whole entry): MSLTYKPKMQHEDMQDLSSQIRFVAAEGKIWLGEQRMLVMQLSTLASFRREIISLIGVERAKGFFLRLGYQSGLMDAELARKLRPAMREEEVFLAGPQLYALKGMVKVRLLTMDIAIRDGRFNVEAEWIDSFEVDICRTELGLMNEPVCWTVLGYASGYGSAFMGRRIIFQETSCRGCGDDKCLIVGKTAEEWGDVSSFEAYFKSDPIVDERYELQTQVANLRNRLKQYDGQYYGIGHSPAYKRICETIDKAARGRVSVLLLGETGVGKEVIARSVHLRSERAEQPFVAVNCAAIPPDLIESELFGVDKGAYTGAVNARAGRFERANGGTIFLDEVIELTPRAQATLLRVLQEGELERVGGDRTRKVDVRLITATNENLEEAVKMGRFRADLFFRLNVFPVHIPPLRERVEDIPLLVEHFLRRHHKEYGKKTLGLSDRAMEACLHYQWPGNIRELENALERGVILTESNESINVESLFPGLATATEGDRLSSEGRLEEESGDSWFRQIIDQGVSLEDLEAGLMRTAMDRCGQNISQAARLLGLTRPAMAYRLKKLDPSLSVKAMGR
# AraC of E. coli, sequence (P0A9E0 whole entry): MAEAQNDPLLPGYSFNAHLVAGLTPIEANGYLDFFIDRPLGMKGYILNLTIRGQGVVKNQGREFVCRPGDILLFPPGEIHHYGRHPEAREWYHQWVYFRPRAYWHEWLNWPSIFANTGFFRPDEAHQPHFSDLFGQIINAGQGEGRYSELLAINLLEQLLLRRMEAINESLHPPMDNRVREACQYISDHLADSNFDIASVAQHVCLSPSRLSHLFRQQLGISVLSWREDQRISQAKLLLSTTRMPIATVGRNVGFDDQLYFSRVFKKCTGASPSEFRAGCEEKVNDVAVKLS
compound,measurement,setting,value
Cc1cccc(CO)c1 [3-methylbenzylalcohol],EC50,"[1]; E. coli, firefly luciferase under XylR and Pu; means±standard deviations; read-out: K1/2 of luminescence concentration dependence; cited from earlier work",2690 µM
Oc1ccccc1 [Phenol],Detection sensitivity,[2],3 µM
same,Detection sensitivity,[3],0.3 µM
O=C(O)c1ccccc1O [salicylate],Detection sensitivity,[4],10 nM
O=C(CO)[C@@H](O)[C@H](O)[C@H](O)CO [Fructose],Detection sensitivity,[5],~2 µM
O=C(O)c1cn(C2CC2)c2cc(N3CCNCC3)c(F)cc2c1=O [ciprofloxacin],Detection sensitivity,[6],60 nM
Br [bromine ions],Toxicity to cells (cell growth),[7],"Neither the bromine ions, nor the CH3Br gas were toxic"
c1ccc2ccccc2c1 [Naphthalene],Detection sensitivity,[8],0.17 µM
same,Detection sensitivity,[4],10 nM
ClC=C(Cl)Cl [trichloroethene],Detection sensitivity,[3],0.3 µM
CBr [CH3Br],Toxicity to cells (cell growth),[7],"Neither the bromine ions, nor the CH3Br gas were toxic"
mitomycin C,Detection sensitivity,[9],0.2 nM mitomycin C
same,Detection sensitivity,[10],4 nM mitomycin C
Cc1ccc(C)cc1 [p-xylene],Detection sensitivity,[3],0.3 µM
Cc1ccccc1 [toluene],Detection sensitivity,[3],0.3 µM
same,Detection sensitivity,[1]; [18],40 µM
same,Detection sensitivity,[11],0.24 µM
Xylene,Detection sensitivity,[1]; [18],40 µM
same,Detection sensitivity,[11],0.24 µM
c1ccccc1 [Benzene],Detection sensitivity,[3],0.3 µM
same,Detection sensitivity,[1]; [18],40 µM
same,Detection sensitivity,[11],0.24 µM
c1ccc2c(c1)ccc1ccccc12 [phenanthrene],Detection sensitivity,[8],0.17 µM
Oc1c(Cl)c(Cl)c(Cl)c(Cl)c1Cl [pentachlorophenol],Detection sensitivity,[12],0.14 nM
CC(=O)NC[C@H]1CN(c2ccc(N3CCOCC3)c(F)c2)C(=O)O1 [linezolid],Detection sensitivity,[13],0.1 µM
Arsenite,Detection sensitivity,[14],5 nM
OC[C@H]1O[C@@](CO)(O[C@H]2O[C@H](CO)[C@@H](O)[C@H](O)[C@H]2O)[C@@H](O)[C@@H]1O [sucrose],Detection sensitivity,[5],~2 µM
antimonite,Detection sensitivity,[14],5 nM
Cc1cccc(C)c1 [m-xylene],Detection sensitivity,[3],0.3 µM
same,EC50,"[1]; read-out: K1/2 of luminescence concentration dependence; E. coli, firefly luciferase under XylR and Pu; means±standard deviations; cited from earlier work",39 ± 3.8 µM
O=C[C@H](O)[C@@H](O)[C@@H](O)CO [L-Arabinose],Detection sensitivity,[15],0.5 µM
CC[C@H]1OC(=O)[C@H](C)[C@@H](O[C@H]2C[C@@](C)(OC)[C@@H](O)[C@H](C)O2)[C@H](C)[C@@H](O[C@@H]2O[C@H](C)C[C@H](N(C)C)[C@H]2O)[C@](C)(O)C[C@@H](C)C(=O)[C@H](C)[C@@H](O)[C@]1(C)O [erythromycin],Detection sensitivity,[16],~10 µM
CO [methanol],Detection sensitivity,[17],"0.25M methanol,"
